Key:
GST-PDK1_1-556 [1] = biological target: T1, GST-PDK1_1-556 (Homo sapiens, UniProt O15530); test: AlphaScreen biotin-GS-022 / GST-PDK1_1-556 interaction; type: binding
T1 construct: made in house; host or cells: HEK293 cells (transient transfection of pEBG2T); peptide synthesized by Pepscan
T1 sequence (O15530 1-556): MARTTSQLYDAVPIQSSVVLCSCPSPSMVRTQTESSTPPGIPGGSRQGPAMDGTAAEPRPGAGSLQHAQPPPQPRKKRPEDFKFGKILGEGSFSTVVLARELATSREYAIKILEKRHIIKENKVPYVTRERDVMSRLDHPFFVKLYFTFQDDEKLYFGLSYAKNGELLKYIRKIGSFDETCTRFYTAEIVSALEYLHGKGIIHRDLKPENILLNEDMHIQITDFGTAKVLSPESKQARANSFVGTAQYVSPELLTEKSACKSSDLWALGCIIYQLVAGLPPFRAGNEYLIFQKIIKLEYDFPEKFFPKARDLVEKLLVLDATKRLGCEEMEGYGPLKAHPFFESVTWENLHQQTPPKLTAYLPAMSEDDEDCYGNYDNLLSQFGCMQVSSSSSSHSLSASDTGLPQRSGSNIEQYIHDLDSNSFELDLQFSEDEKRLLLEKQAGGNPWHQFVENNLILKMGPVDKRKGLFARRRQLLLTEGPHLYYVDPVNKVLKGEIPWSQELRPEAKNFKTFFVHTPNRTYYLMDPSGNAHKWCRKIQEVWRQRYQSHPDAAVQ
Text: 163 independent experiments. (F-G) Interaction and displacement of interactions using
164 AlphaScreen technlology. (F) Interaction of biotin-GS-022 with GST-PDK11-556 and GST-
165 PDK11-359. N=2 independent experiments. (G) Effect of HYG8 on the interaction between
166 biotin-GS-022 and GST-PDK11-556. N=2 independent experiments.
167 The Thermo Fisher Scientific “PDK1 Direct” assay produced results quite different from those
168 obtained using our PDK1 kinase assay which uses [γ32P]ATP and T308tide
169 ([…]) as substrates. Phosphorylation of T308tide and of the alternative
170 peptides GS-022 ([…]) and GS-023 ([…]-K(5-FAM)) was
171 compared. GS-023 and GS-022 were phosphorylated efficiently by GST-PDK11-556, with over
172 30 and 10-fold higher turnover than T308tide, respectively (fig. S2A). The increased
174 GS-023 peptide provided a degree of improvement of substrate phosphorylation by PDK11-
175 556. GST-PDK11-359, comprising only the catalytic domain but lacking the linker region and the
176 PH domain, phosphorylated the three substrates similarly, with a slight increased turnover
177 towards GS-023 (fig. S2B). Thus, the phosphorylation of GS-23 and GS-022, but not that of
178 T308tide, depended on the construct used (figs. S2C-E). To assess a possible differential […]
180 that measured the interaction of biotin-GS-022 with GST-PDK11-556 and GST-PDK11-359. […]

GST-PDK1_1-556 [2] = biological target: T1, GST-PDK1_1-556; test: AlphaScreen GST-PDK1_1-556 / biotin-PIFtide interaction; type: binding
Procedure: The AlphaScreen® assay was performed following the general guidelines from the manufacturer (Perkin Elmer) ([29]). In short, the assay was performed in a final volume of 25 μl in white 384-well microtiter plates (Greiner) in a standard buffer containing 50 mM Tris-HCl (pH 7.4), 100 mM NaCl, 2 mM DTT, 0.01% (v/v) Tween-20 and 0.1% (w/v) BSA, with the addition of 5 μl of beads (anti-GST coated acceptor beads and streptavidin-coated donor beads; nickel chelate-coated acceptor beads and streptavidin-coated donor beads; or nickel chelate-coated acceptor beads and GSH-coated donor beads, 20 μg/ml final concentrations for each bead type). AlphaScreen assays for His-tagged proteins and GST-fusion proteins were performed using nickel chelate-coated acceptor beads and GSH-coated donor beads; alphascreen assays for His-tagged proteins and biotinylated molecules were performed using nickel chelate-coated acceptor beads and streptavidin-coated donor beads; alphascreen assays for GST-fusion proteins and biotinylated molecules were performed using anti-GST coated acceptor beads and streptavidin-coated donor beads (Perkin Elmer).
The interaction between GST-PDK1_1-556 and biotin-PIFtide was performed as described previously ([29], [32]) in the standard buffer, but the bead concentration was lowered to 15 μg/ml.

O=C(O[C@H]1[C@@H](OP(=O)(O)O)[C@H](OP(=O)(O)O)[C@@H](OP(=O)(O)O)[C@H](OP(=O)(O)O)[C@H]1OP(=O)(O)O)c1ccccc1 [HYG8, 2-O-benzoyl-IP5]
effect on interaction between GS-022 and PDK1_1-556 (GST-PDK1_1-556 [1]): potently | EC50 (GST-PDK1_1-556 [2]; approximate, read-out: EC50, increase of GST-PDK1_1-556 binding to PIFtide): ~2.4 nM | fold increase of binding of GST-PDK1_1-556 to PIFtide (GST-PDK1_1-556 [2]; different experiments): 3-4 fold

— PMC7614687, “Modulation of the substrate specificity of the kinase PDK1 by distinct conformations of the full-length protein*” (Science signaling, 2023)
